Bridges are numbered along the chain shown (N, C = ends). Where no end group is shown, it is not given here. [ ]: non-standard residue; d: D form.
Legend:
[1] = test system: HedgeHog signalling pathway; assay: Hedgehog pathway inhibitor delivery to Gli-luciferase reporter NIH3T3 cells (luminescence); type: cell-based, Mouse; conditions: for Mean luminescence intensity: inhibitor 100 μM, 90 seconds, mShh-stimulated reporter cells; for cellular luminescence intensity in the presence of FSD250D as compared to in the absence of FSD250D: +mShh, inhibitor transduced by FSD250D
Procedure: Stock solutions of cargoes were prepared as follows: Gant61 stock (20 mM in DMSO); HPI4 stock (40 mM in DMSO); Itraconazole stock (4.8 mM (4 mg/mL) in DMSO); Arsenic trioxide (ATO) stock (40 mM in H2O). Peptide shuttle agent (5 μM) and Hedgehog pathway inhibitor (100 μM) were mixed and volume was completed to 50 μL with PBS.
Hedgehog signaling pathway Gli Reporter NIH 3T3 cells were cultured in DMEM containing 10% calf serum. Cells were trypsinized, centrifuged and resuspended at 10 million cells/mL in PBS. 50 μL of cells (500 000 cells/well) were distributed in a round bottom non-treated 96-well plate. Resuspended cells were mixed with a delivery mix containing the peptide shuttle agent (5 μM) and Hedgehog pathway inhibitor (100 μM). Cells were incubated 90 seconds with the delivery mix at room temperature, 200 μL of DMEM containing 10% calf serum (200 μL) was added in each well, and cells were centrifuged (400 g, 4 min.) and washed with 200 μL of PBS. Cells were then resuspended in 200 μL of DMEM and then transferred to a well of a 6-well plate containing 1 mL of DMEM containing 10% calf serum and incubated at 37° C. for 2 hours. The media was gently removed and 1 ml of either control media (Opti-MEM™) or activating media (Opti-MEM with 5 μg/mL mShh) was added to each well. Cells were incubated at 37° C. for 24-30 hours.
For analyses, cells were trypsinized and resuspended in each well with 200 μL of Opti-MEM™, and then split equally to two wells of a round bottom 96-well plate. Viability was assessed using flow cytometry analysis and ONE-Step Luciferase assay was used to measure luminescence following manufacturer's instructions.
Briefly, the NIH3T3 Gli-luciferase reporter cell line is designed to monitor the activity of the HedgeHog signaling pathway and contains the firefly luciferase gene under the control of Gli responsive elements stably integrated into NIH3T3 cells. As shown in FIG. 3 and Table 1, exposure of the NIH3T3 Gli-luciferase reporter cells to recombinant mouse Sonic HedgeHog protein as a positive control (“Ctrl+mShh”) results in an increase in luminescence intensity that is not observed in the negative control cells which were not exposed to mShh (“Ctrl−mShh”).

HedgeHog pathway = assay: Hedgehog pathway inhibitor transduction in vivo, depilated mouse hair regrowth; set-up: species or system C57BL6 mice; conditions: 100 μM inhibitor, topical on depilated skin, in the presence of FSD250D vs in its absence, 10 days post-treatment
sodium channel Nav1.7 = biological target: T1, sodium channel Nav1.7 (Homo sapiens, UniProt Q15858); assay: QX-314 delivery, whole-cell patch-clamp of HEK293 cells stably expressing Nav1.7; type: cell-based
T1 construct: expressed in transfected cells
Procedure: Cell culture. HEK293 cells stably expressing Nav1.7 were grown in Dulbecco's minimal essential medium (DMEM, Gibco BRL Life Technologies) supplemented with fetal bovine serum (FBS, 10%), L-glutamine (2 mM), penicillin (100 U/mL), streptomycin ([…]). The cells were incubated at 37° C. in a 5% CO2 humidified atmosphere.
(§1) Delivery. Cells were seeded 24 hours prior to the experiment in 24-well plate. Cells were washed twice with PBS. A solution containing 1 mM of QX-314, 5 μM of FSD194 and 15 μM of GFP-NLS protein was applied to cells for 90 seconds and removed by aspiration. Control was performed using 5 μM of FSD194 or of 2.5 mM QX-314, in presence of GFP-NLS. Cells were washed with 800 μL of DMEM containing 10% FBS and transferred in the recording solution to perform the electrophysiology. GFP-positive cells were determined by microscopy and then selected for patch-clamp analysis.
Electrophysiology. Frequency protocol with QX-314 was recorded within 30 s after the whole-cell configuration was formed. Frequency protocol consists of a pulse of 10 ms at −20 mV from a holding potential of −140 mV at 10 Hz. Whole-cell Na+ currents in HEK293 cells were recorded at room temperature using an Axopatch 200B with the whole-cell configuration of the patch-clamp technique (Molecular Devices). pClamp v10.0 was used for the pulse stimulations and recordings (Molecular Devices). Currents were filtered at 5 kHz, digitized at 100 kHz using a Digidata 1550 AD converter (Molecular devices), and stored on a computer for subsequent analyses. Series resistance was compensated by 70-80%. When needed, linear leak current artifacts were removed using on-line leak subtraction. Fire-polished low-resistance electrodes (2MS2) were pulled from 8161 glass (Corning).
Recording Solutions. Bath solution: 35 mM NaCl, 115 mM NMDG, 2 mM KCl, 1.5 mM CaCl2, 1.0 mM MgCl2, 10 mM glucose, 10 mM HEPES. The pH was adjusted to pH 7.3 with 1 M NaOH. Pipette solution: 35 mM NaCl, 105 mM CsF, 10 mM EGTA, and 10 mM HEPES. The pH was adjusted to pH 7.4 with 1 M CsOH.

HeLa cells = assay: Propidium iodide (PI) transduction in HeLa cells, flow cytometry; type: cell-based, Human; conditions: for delivery / transduction of PI: shuttle or control peptide 10 μM, PI 10 μg/mL, 1 minute, 2 hours after delivery
Procedure: HeLa cells were plated (20 000 cells/well) in a 96 well-dish the day prior the experiment. Each delivery mix comprising a synthetic peptide shuttle agent (10 μM) and the propidium iodide (PI) (10 μg/mL) or the GFP-NLS (10 μM) were prepared and completed to 50 μL with phosphate-buffered saline (PBS). Cells were washed once with PBS and the Shuttle/PI or Shuttle/GFP-NLS added on cells for one minute. Then 100 μL DMEM containing 10% FBS was added to the mix and removed. Cells were washed once with PBS and incubated in DMEM containing 10% FBS. Cells were analyzed after 2-hour incubation by flow cytometry. For the condition “FS then PI”, only the synthetic peptide shuttle agent (10 μM) was added on HeLa cells for 1 minute and one hour later PI (10 μg/mL) was added for one minute following the same washing step. Cells were analyzed one hour after PI or GFP-NLS treatment.
HeLa cells were cultured as described in Example 1.3 and subjected to the PI transduction protocol as described in Example 1.4, with the proteinaceous cargo GFP-NLS being transduced separately as a control in some experiments. Results were acquired by flow cytometry two hours after delivery and expressed as percentages of fluorescent cells (% PI+ cells or % GFP+ cells), as shown in FIGS. 1A-1D and as summarized in the table shown in FIG. 2.
To evaluate the suitability of PI as a “surrogate” cargo for novel shuttle agents, a proprietary library of over 300 candidate peptide shuttle agents was screened in parallel for both PI and GFP-NLS transduction activity in HeLa cells using flow cytometry as generally described in Example 1.4. Aside from the concentrations of the cargoes (i.e., 10 μg/mL for PI vs 10 μM for GFP-NLS), the transduction protocols were otherwise the same.
Due to the large number of peptides screened, negative controls were performed in parallel for each experimental batch and included a “no treatment” (NT) control in which the cells were not exposed to shuttle peptide or cargo, as well as a “cargo alone” control in which cells were exposed to the cargo in the absence of shuttle agent. Results are shown in FIGS. 6 and 7, in which “transduction efficiency” refers to the percentage of all viable cells that are positive for the cargo (PI or GFP-NLS). “Mean Delivery score” provides a further indication of the total amount of cargo that was delivered per cell, amongst all cargo-positive cells. Mean PI or GFP-NLS delivery score was calculated by multiplying the mean fluorescence intensity (of at least duplicate samples) measured for the viable PI+ or GFP+ cells by the mean percentage of viable PI+ or GFP+ cells, divided by 100,000 for GFP delivery or by 10,000 for PI delivery. […]

HEK293 cells = assay: GFP-NLS co-transduction in HEK293 cells, microscopy; type: cell-based, Human; conditions: 5 μM FSD194+15 μM GFP-NLS, with or without QX-314
Procedure: as §1

T1 sequence (Q15858 whole entry): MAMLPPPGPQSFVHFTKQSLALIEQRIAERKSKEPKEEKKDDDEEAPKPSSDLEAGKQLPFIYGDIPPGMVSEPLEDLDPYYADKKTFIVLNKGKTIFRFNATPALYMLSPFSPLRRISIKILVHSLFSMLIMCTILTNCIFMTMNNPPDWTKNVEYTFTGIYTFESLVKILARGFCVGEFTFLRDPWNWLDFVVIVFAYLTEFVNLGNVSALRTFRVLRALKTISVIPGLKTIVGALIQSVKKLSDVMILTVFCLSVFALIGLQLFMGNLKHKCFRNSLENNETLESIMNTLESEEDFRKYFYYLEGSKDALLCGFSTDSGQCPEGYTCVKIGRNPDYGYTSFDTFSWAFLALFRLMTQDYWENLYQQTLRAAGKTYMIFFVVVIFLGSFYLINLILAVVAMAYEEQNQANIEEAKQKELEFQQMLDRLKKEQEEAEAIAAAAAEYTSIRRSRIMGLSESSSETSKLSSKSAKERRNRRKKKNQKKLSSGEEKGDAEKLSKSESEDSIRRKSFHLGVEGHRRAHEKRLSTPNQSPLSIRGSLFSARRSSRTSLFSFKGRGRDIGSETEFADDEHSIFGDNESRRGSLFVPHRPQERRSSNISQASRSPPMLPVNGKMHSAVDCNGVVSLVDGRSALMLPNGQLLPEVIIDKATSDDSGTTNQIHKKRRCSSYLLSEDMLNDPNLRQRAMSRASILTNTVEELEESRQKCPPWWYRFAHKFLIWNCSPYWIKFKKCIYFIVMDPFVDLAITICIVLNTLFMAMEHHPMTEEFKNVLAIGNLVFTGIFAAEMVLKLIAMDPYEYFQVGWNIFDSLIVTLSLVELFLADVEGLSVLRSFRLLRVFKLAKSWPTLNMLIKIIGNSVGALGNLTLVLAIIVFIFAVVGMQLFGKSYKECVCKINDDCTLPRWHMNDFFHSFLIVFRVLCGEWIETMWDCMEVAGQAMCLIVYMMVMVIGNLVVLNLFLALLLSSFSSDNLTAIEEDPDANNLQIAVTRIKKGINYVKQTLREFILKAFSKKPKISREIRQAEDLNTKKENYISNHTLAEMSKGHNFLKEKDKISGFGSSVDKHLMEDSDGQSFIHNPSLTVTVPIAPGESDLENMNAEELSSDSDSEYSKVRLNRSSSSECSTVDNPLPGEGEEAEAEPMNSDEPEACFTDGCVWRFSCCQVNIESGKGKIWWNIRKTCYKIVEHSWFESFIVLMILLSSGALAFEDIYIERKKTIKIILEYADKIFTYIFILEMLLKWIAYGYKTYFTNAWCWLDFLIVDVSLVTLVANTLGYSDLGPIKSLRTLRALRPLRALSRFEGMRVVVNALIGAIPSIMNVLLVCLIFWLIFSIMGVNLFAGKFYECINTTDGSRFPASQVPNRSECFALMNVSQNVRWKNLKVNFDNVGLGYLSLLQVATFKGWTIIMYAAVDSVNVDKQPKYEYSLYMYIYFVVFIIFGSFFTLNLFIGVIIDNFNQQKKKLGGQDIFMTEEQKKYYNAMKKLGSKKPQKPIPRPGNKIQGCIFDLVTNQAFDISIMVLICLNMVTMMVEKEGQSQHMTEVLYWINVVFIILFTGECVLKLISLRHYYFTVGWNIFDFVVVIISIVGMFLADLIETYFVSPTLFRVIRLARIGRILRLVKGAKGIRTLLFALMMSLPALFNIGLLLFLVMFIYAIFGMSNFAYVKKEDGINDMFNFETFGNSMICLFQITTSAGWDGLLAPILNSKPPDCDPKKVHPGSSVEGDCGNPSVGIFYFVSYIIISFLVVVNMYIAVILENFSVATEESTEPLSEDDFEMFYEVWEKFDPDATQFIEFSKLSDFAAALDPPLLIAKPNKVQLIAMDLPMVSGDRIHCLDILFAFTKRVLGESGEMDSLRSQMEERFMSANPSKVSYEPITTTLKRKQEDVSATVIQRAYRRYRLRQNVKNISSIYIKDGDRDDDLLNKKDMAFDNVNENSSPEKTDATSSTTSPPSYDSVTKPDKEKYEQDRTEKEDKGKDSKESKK

CN(C)c1ccccc1CN1CCCN(Cc2ccccc2N(C)C)C1c1ccncc1 [Gant61]
Mean luminescence intensity ([1]; +FSD250D (5 μM)): 4216 | cellular luminescence intensity in the presence of FSD250D as compared to in the absence of FSD250D [1]: significantly reduced cellular luminescence intensity | Mean luminescence intensity ([1]; −FSD250D): 6770 | hair regrowth (HedgeHog pathway): delayed hair regrowth

N#C/C(C(=O)c1ccc(Cl)cc1Cl)=C1\NC(=O)c2ccccc2N1 [HPI-4]
Mean luminescence intensity ([1]; +FSD250D (5 μM)): 1993 | cellular luminescence intensity in the presence of FSD250D as compared to in the absence of FSD250D [1]: significantly reduced cellular luminescence intensity | Mean luminescence intensity ([1]; −FSD250D): 6370

CCC(C)n1ncn(-c2ccc(N3CCN(c4ccc(OCC5COC(Cn6cncn6)(c6ccc(Cl)cc6Cl)O5)cc4)CC3)cc2)c1=O (stereo not drawn) [Itraconazole]
Mean luminescence intensity ([1]; +FSD250D (5 μM)): 1519 | Mean luminescence intensity ([1]; −FSD250D): 5612

CC[N+](CC)(CC)CC(=O)Nc1c(C)cccc1C.[Br-] [QX-314, Lidocaine N-ethyl bromide]
evoked whole-cell Na+ current amplitude (sodium channel Nav1.7; 1 mM QX-314+15 μM GFP-NLS+5 μM FSD194, 90 seconds, 10 ms pulse at 10 Hz): Reduction of the current amplitude | evoked whole-cell Na+ current amplitude (sodium channel Nav1.7; 2.5 mM QX-314+15 μM GFP-NLS, absence of FSD194): current amplitude reduction was not observed

Arsenic trioxide [ATO]
Mean luminescence intensity ([1]; +FSD250D (5 μM)): 4686 | cellular luminescence intensity in the presence of FSD250D as compared to in the absence of FSD250D [1]: significantly reduced cellular luminescence intensity | Mean luminescence intensity ([1]; −FSD250D): 5967

FSD174 Scramble: negative control peptide, same amino acid composition as FSD174, order changed (LGRSGRIKIGGWSALASRARQARGLKIWTQGRL; FSD174 Scramble)
PI transduction efficiency relative to "cargo alone" negative control (HeLa cells; negative control peptide, data not shown): lower transduction efficiencies for PI

FSD194: rationally-designed synthetic peptide shuttle agent (KWKLLKLWSRLLKLWGGSGGGSRRLKAKRAKA; FSD194)
evoked whole-cell Na+ current amplitude (sodium channel Nav1.7; 15 μM GFP-NLS+5 μM FSD194, without QX-314): current amplitude reduction was not observed | GFP-NLS-positive cells (HEK293 cells): GFP-NLS-positive cells were identified

FSD250D: same amino acid sequence as FSD250, except that all the amino acids are D-amino acids ([dK][dW][dK][dL][dL][dK][dL][dW][dS][dR][dL][dL][dK][dL][dW]GG[dS]GGG[dS][dA][dR][dA][dA][dR][dQ][dA][dR])
effect of shuttle agent alone on luminescence intensity following mShh stimulation ([1]; FSD250D together with mShh, no inhibitor, data not shown): had no effect on cellular luminescence intensity

FSD268 Cyclic Amide: cyclic peptide possessing an amide bond between its C and N termini (KWKLLKLWSRLLKLWGGSGGGSQARAQARQAR; head-to-tail cyclic amide; FSD268 Cyclic Amide; (1)..(32) Cyclic peptide covalent link between K1 and R32)
delivery / transduction of PI (HeLa cells): increased the delivery of PI

FSD268 Cyclic Disulfide: cyclic peptide with a disulfide bridge between two flanking cysteines added in N and C terminal positions (CKWKLLKLWSRLLKLWGGSGGGSQARAQARQARC; disulfide 1-34)
delivery / transduction of PI (HeLa cells): increased the delivery of PI

FSD268: rationally-designed synthetic peptide shuttle agent (KWKLLKLWSRLLKLWGGSGGGSQARAQARQAR; FSD268)
delivery / transduction of PI (HeLa cells): increased the delivery of PI

Source: patent US12428447B2, “Peptide-based non-proteinaceous cargo delivery” (priority 2019, dated 2025)
